Assay results: US9328138B2 (priority 2011, dated 2016)

Key:
[1] = target: T1, HCV genotype 1b (BK) NS3 modified enzyme with a R155K mutation (Hepatitis C virus genotype 1b, UniProt P26663, R1181K); assay: HCV NS3 protease time-resolved fluorescence (TRF) assay, genotype 1b R155K; assay type: biochemical; settings: Ki 1b R155K
T1 construct: HCV genotype 1b (BK) NS3 modified enzyme
Procedure, shortened: (§1)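 Pre-incubation of NS3/NS4A protease with inhibitor for 10 min in pH 7.5 HEPES buffer with 10 mM DTT; 25 nM TRF peptide substrate, hydrolysis 6 h at room temperature. Fluorescence read at ex 340/em 615 nm with 400 μs delay, enzyme level set for S/B 5-20; IC50 by four-parameter fit.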

[2] = target: HCV NS3 protease genotype 3a (3A-1) (Hepatitis C virus genotype 3a, UniProt Q81258); assay: HCV NS3 protease time-resolved fluorescence (TRF) assay, genotype 3a; assay type: biochemical; settings: Ki 3a
Procedure, shortened: as §1

[3] = genotype 1b (BK) NS3 R155K, single value
[4] = first of two values printed in the cell (not explained)
[5] = second of two values printed in the cell (not explained)

| SMILES | Ki [1, 3] [nM] | Ki [2] [nM] | Ki [1, 4] [nM] | Ki [1, 5] [nM] |
| --- | --- | --- | --- | --- |
| C=C[C@@H]1C[C@]1(NC(=O)[C@@H]1C[C@@H]2CN1C(=O)[C@H](C(C)(C)C)NC(=O)O[C@@H]1C[C@H]1CCCCCc1c(nc3ccccc3c1OCCCN1CC(F)C1)O2)C(=O)NS(=O)(=O)C1(C)CC1 [Example 155, (1aR,5S,8S,10R,22aR)-5-tert-butyl-N-[(1R,2S)-2-ethenyl-1-{[(1-methylcyclopropyl)sulfonyl]carbamoyl}cyclopropyl]-17-[3-(3-fluoroazetidin-1-yl)propoxy]-3,6-dioxo-1,1a,3,4,5,6,9,10,18,19,20, 21,22,22a-tetradecahydro-8H-7,10-methanocyclopropa[18,19][1,10,3,6] dioxadiazacyclononadecino [11,12-b]quinoline-8-carboxamide] | 0.11 | 1.4 |  |  |
| C=C[C@@H]1C[C@]1(NC(=O)[C@@H]1C[C@@H]2CN1C(=O)[C@H](C(C)(C)C)NC(=O)O[C@@H]1C[C@H]1CCCCCc1c(nc3ccccc3c1-c1ccncc1)O2)C(=O)NS(=O)(=O)C1(C)CC1 [Example 244, (1aR,5S,8S,10R,22aR)-5-tert-butyl-N-[(1R,2S)-2-ethenyl-1-{[(1-methylcyclopropyl)sulfonyl]carbamoyl}cyclopropyl]-3,6-dioxo-17-(pyridin-4-yl)-1,1a,3,4,5,6,9,10,18,19,20,21,22,22a-tetradecahydro-8H-7,10-methanocyclopropa[18,19][1,10,3,6]dioxadiazacyclononadecino[11,12-b]quinoline-8-carboxamide] |  | 296 | 1.59 | 1.65 |
| CC[C@@H]1C[C@]1(NC(=O)[C@@H]1C[C@@H]2CN1C(=O)[C@H](C1CCCC1)NC(=O)O[C@@H]1CCC[C@H]1CCCCCc1c(nc3ccccc3c1OC)O2)C(=O)NS(=O)(=O)C1CC1 [Example 27, (3aR,7S,10S,12R,24aR)-7-cyclo pentyl-N-{(1R,2R)-1-[(cyclopropylsulfonyl)carbamoyl]-2-ethylcyclopropyl}-19-methoxy-5,8-dioxo-1,2,3,3a,5,6,7,8,11,12,20,21,22,23,24,24a-hexadeca hydro-10H-9,12-methanocyclopenta[18,19] [1,10,3,6]dioxadiazacyclononadecino[11,12-b] quinoline-10-carboxamide] | 2.5 | 59 |  |  |
| CC1(S(=O)(=O)NC(=O)[C@@]23C[C@H]2/C=C\CCCCC[C@@H]2NC(=O)O[C@@H]4C[C@H]4CCC/C=C/c4c(nc5ccccc5c4OCCCN4CCCC4)O[C@@H]4C[C@@H](C(=O)N3)N(C4)C2=O)CC1 [Example 303, (1aR,5S,11Z,12aS,13aR,16S,19R,27E, 31aR)-N-[(1-methylcyclopropyl)sulfonyl]-3,15,33-trioxo-26-[3-(pyrrolidin-1-yl)propoxy]-1,1a,3,4,5,6,7,8,9,10,12a,13,15,16,18, 19,29,30,31,31a-icosahydro-5,17:16,19-dimethanodicyclopropa[12,13:28,29] [1,20,3,14,17] dioxatriazacyclononacosino[21,22-b]quinoline-13a(14H)-carboxamide] | 0.28 | 3.6 |  |  |
| C=C[C@@H]1C[C@]1(NC(=O)[C@@H]1C[C@@H]2CN1C(=O)[C@H](C1CCCC1)NC(=O)O[C@@H]1CCC[C@H]1CC/C=C/Cc1c(nc3ccccc3c1OCCCN)O2)C(=O)NS(=O)(=O)C1CC1 [Example 94, (3aR,7S,10S,12R,21E,24aS)-19-(3-aminopropoxy)-7-cyclopentyl-N-{(1R,2S)-1-[(cyclopropylsulfonyl)carbamoyl]-2-ethenylcyclopropyl}-5,8-dioxo-1,2,3,3a,5,6,7,8,11,12,20,23,24,24a-tetradecahydro-10H-9,12-methanocyclopenta[18,19][1,10,3,6]dioxadiazacyclononadecino[11,12-b]quinoline-10-carboxamide] | 0.093 | 0.59 |  |  |
| C=C[C@@H]1C[C@]1(NC(=O)[C@@H]1C[C@@H]2CN1C(=O)[C@H](C(C)(C)C)NC(=O)O[C@@H]1C[C@H]1CCCCCc1c(nc3ccccc3c1OC1CC3CCC(C1)N3C(=O)OC(C)(C)C)O2)C(=O)NS(=O)(=O)C1(C)CC1 (single isomer, unassigned) [Example 273] |  | 68 | 0.1 | 1.85 |
